We go through 41 compounds from US12053459B2, “CDK2 inhibitors and methods of using the same” (Cedilla Therapeutics, Inc., priority 2021, dated 2024).

One assay addresses CDK2/Cyclin E1(14-475) (Homo sapiens, UniProt P24941). Put plainly: Caliper LabChip EZ Reader mobility shift assay, inhibition of CDK2/Cyclin E1 activity. The class given is biochemical. The following applies: class symbols A-D. The gist of the method:
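CDK2/Cyclin E1(14-475) pre-incubated 30 min with compound and ATP, then reaction started with 5-FAM-QSPKKG-CONH2; final 2.5 nM enzyme, 100 μM ATP, 1.5 μM peptide, HEPES pH 7.5. Stopped with EDTA after 100 min; substrate/product conversion by capillary electrophoresis mobility shift, IC50 from four-parameter fit.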

The test system of another assay is Kuramochi cells. Kind of assay: BrdU cell proliferation assay (colorimetric ELISA), Kuramochi cells. The following applies: class symbols A-D. The class given is cell-based. The gist of the method: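 Kuramochi cells (2,000/well, with Kuramochi RB^KO cells as a specificity control) were treated with a 4-point, 3-fold dilution series made from 10 mM compound stocks and left for 4 days at 37 °C. Proliferation was measured by 1 h BrdU labelling, then anti-BrdU peroxidase ELISA read at 450 nm. Signals were background-subtracted and normalized to DMSO wells.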
A general note: An ELISA detects its analyte on a solid surface through an enzyme-linked reagent.

For orientation: IC50 means the midpoint of a concentration-inhibition curve. Consider `COc1cc(C(=O)N2CC3CN(C(=O)Cc4c[nH]c5cc(Cl)ccc45)CC(C(=O)NC(CCCc4ccccc4)c4ncccn4)C3C2)ccc1OC(C)C` (stereo not shown) [I-151], for which the IC50 on CDK2/Cyclin E1(14-475) was ≤ 0.5 µM; in the assay on Kuramochi cells it was 0.5 to 5 µM.

On to `CNC(=O)[C@H](CCCc1ccccc1)NC(=O)C1CN(C(=O)Cc2ccccc2)CC2CN(C(=O)c3ccc(OC(C)C)c(OC)c3)CC21` (stereo partly drawn) [I-154, 2-(4-isopropoxy-3-methoxybenzoyl)-N—((S)-1-(methylamino)-1-oxo-5-phenylpentan-2-yl)-5-(2-phenylacetyl)octahydro-1H-pyrrolo[3,4-c]pyridine-7-carboxamide], for which the IC50 at CDK2/Cyclin E1(14-475) and with Kuramochi cells was > 10 µM throughout.

For `CNC(=O)[C@H](CCCc1ccccc1)NC(=O)C1CN(C(=O)Cc2ccccn2)CC2CN(C(=O)c3ccc(OC(C)C)c(OC)c3)CC21` (stereo partly shown) [I-155], the IC50 on CDK2/Cyclin E1(14-475) and in the assay with Kuramochi cells was > 10 µM each time.

For the compound `CNC(=O)[C@H](CCCc1ccccc1)NC(=O)C1CN(C(=O)Cn2cnc3cc(Cl)ccc32)CC2CN(C(=O)c3ccc(OC(C)C)c(OC)c3)CC21` (stereo partly shown) [I-156], the IC50 was 0.5 to 5 µM on CDK2/Cyclin E1(14-475) and > 10 µM with Kuramochi cells.

Turning to `CNC(=O)[C@H](CCCc1ccccc1)NC(=O)C1CN(C(=O)CCc2c[nH]c3ccccc23)CC2CN(C(=O)c3ccc(OC(C)C)c(OC)c3)CC21` (stereo partly shown) [I-157], the IC50 at CDK2/Cyclin E1(14-475) and in the assay with Kuramochi cells was > 10 µM in each case.

As for `CNC(=O)[C@H](CCCc1ccccc1)NC(=O)C1CN(C(=O)c2ccc3ncccc3c2)CC2CN(C(=O)c3ccc(OC(C)C)c(OC)c3)CC21` (stereo partly shown) [I-158], the IC50 at CDK2/Cyclin E1(14-475) and with Kuramochi cells was > 10 µM in each case.

Consider `CNC(=O)[C@H](CCCc1ccccc1)NC(=O)C1CN(C(=O)c2cn(C)c3ccccc23)CC2CN(C(=O)c3ccc(OC(C)C)c(OC)c3)CC21` (stereo partly shown) [I-159], for which the concentration for half-maximal inhibition (IC50) at CDK2/Cyclin E1(14-475) and in the assay on Kuramochi cells was > 10 µM in each case.

In the case of `CNC(=O)[C@H](CCCc1ccccc1)NC(=O)C1CN(C(=O)c2cc3ccccc3cn2)CC2CN(C(=O)c3ccc(OC(C)C)c(OC)c3)CC21` (stereo partly shown) [I-160], the IC50 at CDK2/Cyclin E1(14-475) and in the assay with Kuramochi cells was > 10 µM in each case.

For `CNC(=O)[C@H](CCCc1ccccc1)NC(=O)C1CN(C(=O)Cn2ccc3ccccc32)CC2CN(C(=O)c3ccc(OC(C)C)c(OC)c3)CC21` (stereo partly shown) [I-161], the half-inhibitory concentration (IC50) at CDK2/Cyclin E1(14-475) and in the assay on Kuramochi cells was > 10 µM each time.

Take `CNC(=O)[C@H](CCCc1ccccc1)NC(=O)C1CN(C(=O)c2cc3cc(C)ccc3[nH]2)CC2CN(C(=O)c3ccc(OC(C)C)c(OC)c3)CC21` (stereo partly shown) [I-162]: the IC50 at CDK2/Cyclin E1(14-475) and in the assay on Kuramochi cells was > 10 µM throughout.

Take `CNC(=O)[C@H](CCCc1ccccc1)NC(=O)C1CN(C(=O)c2cnc(OC)cn2)CC2CN(C(=O)c3ccc(OC(C)C)c(OC)c3)CC21` (stereo partly shown) [I-163]: the half-inhibitory concentration (IC50) on CDK2/Cyclin E1(14-475) and in the assay on Kuramochi cells was > 10 µM throughout.

Regarding `CNC(=O)[C@H](CCCc1ccccc1)NC(=O)C1CN(C(=O)CCc2ccccn2)CC2CN(C(=O)c3ccc(OC(C)C)c(OC)c3)CC21` (stereo partly shown) [I-164], the IC50 at CDK2/Cyclin E1(14-475) and in the assay with Kuramochi cells was > 10 µM each time.

`CNC(=O)[C@H](CCCc1ccccc1)NC(=O)C1CN(C(=O)c2ccc3nccnc3c2)CC2CN(C(=O)c3ccc(OC(C)C)c(OC)c3)CC21` (stereo partly shown) [I-165]: the IC50 on CDK2/Cyclin E1(14-475) and in the assay on Kuramochi cells was > 10 µM in each case.

With `CNC(=O)[C@H](CCCc1ccccc1)NC(=O)C1CN(C(=O)c2coc(C)n2)CC2CN(C(=O)c3ccc(OC(C)C)c(OC)c3)CC21` (stereo partly shown) [I-166], the IC50 on CDK2/Cyclin E1(14-475) and in the assay on Kuramochi cells was > 10 µM each time.

`CNC(=O)[C@H](CCCc1ccccc1)NC(=O)C1CN(C(=O)Cc2ccc3ncccc3c2)CC2CN(C(=O)c3ccc(OC(C)C)c(OC)c3)CC21` (stereo partly shown) [I-167]: the IC50 at CDK2/Cyclin E1(14-475) and in the assay with Kuramochi cells was > 10 µM each time.

Regarding `CNC(=O)[C@H](CCCc1ccccc1)NC(=O)C1CN(C(=O)c2cc(-c3ccccc3)n[nH]2)CC2CN(C(=O)c3ccc(OC(C)C)c(OC)c3)CC21` (stereo partly shown) [I-168], the IC50 at CDK2/Cyclin E1(14-475) and with Kuramochi cells was > 10 µM in each case.

Consider `CNC(=O)[C@H](CCCc1ccccc1)NC(=O)C1CN(C(=O)C2(C)CCOCC2)CC2CN(C(=O)c3ccc(OC(C)C)c(OC)c3)CC21` (stereo partly shown) [I-169], for which the IC50 on CDK2/Cyclin E1(14-475) and in the assay on Kuramochi cells was > 10 µM in each case.

As for `CNC(=O)[C@H](CCCc1ccccc1)NC(=O)C1CN(C(=O)c2cc3cccc(C)c3[nH]2)CC2CN(C(=O)c3ccc(OC(C)C)c(OC)c3)CC21` (stereo partly shown) [I-170], the IC50 at CDK2/Cyclin E1(14-475) and in the assay with Kuramochi cells was > 10 µM in each case.

For the compound `CNC(=O)[C@H](CCCc1ccccc1)NC(=O)C1CN(C(=O)c2[nH]ccc2C)CC2CN(C(=O)c3ccc(OC(C)C)c(OC)c3)CC21` (stereo partly shown) [I-171], the IC50 on CDK2/Cyclin E1(14-475) and with Kuramochi cells was > 10 µM each time.

As for `CNC(=O)[C@H](CCCc1ccccc1)NC(=O)C1CN(C(=O)c2c[nH]c3cc(Cl)ccc23)CC2CN(C(=O)c3ccc(OC(C)C)c(OC)c3)CC21` (stereo partly shown) [I-172], the IC50 on CDK2/Cyclin E1(14-475) and in the assay on Kuramochi cells was > 10 µM each time.

Consider `CNC(=O)[C@H](CCCc1ccccc1)NC(=O)C1CN(C(=O)Cc2c[nH]c3ccc(F)cc23)CC2CN(C(=O)c3ccc(OC(C)C)c(OC)c3)CC21` (stereo partly shown) [I-173], for which the IC50 is 0.5 to 5 µM on CDK2/Cyclin E1(14-475) and > 10 µM in the assay with Kuramochi cells.

Turning to `CNC(=O)[C@H](CCCc1ccccc1)NC(=O)C1CN(C(=O)Cc2c[nH]c3cc(F)ccc23)CC2CN(C(=O)c3ccc(OC(C)C)c(OC)c3)CC21` (stereo partly shown) [I-174], the values for the IC50 at CDK2/Cyclin E1(14-475) and in the assay on Kuramochi cells were 0.5 to 5 µM and > 10 µM, respectively.

Regarding `CNC(=O)[C@H](CCCc1ccccc1)NC(=O)C1CN(C(=O)Cc2c[nH]c3c(C)cccc23)CC2CN(C(=O)c3ccc(OC(C)C)c(OC)c3)CC21` (stereo partly shown) [I-175], the IC50 on CDK2/Cyclin E1(14-475) and in the assay on Kuramochi cells was > 10 µM throughout.

`CNC(=O)[C@H](CCCc1ccccc1)NC(=O)C1CN(C(=O)Cc2c[nH]c3cccc(OC)c23)CC2CN(C(=O)c3ccc(OC(C)C)c(OC)c3)CC21` (stereo partly shown) [I-176]: the IC50 on CDK2/Cyclin E1(14-475) and with Kuramochi cells was > 10 µM throughout.

For `CNC(=O)[C@H](CCCc1ccccc1)NC(=O)C1CN(C(=O)C(C)(C)c2c[nH]c3ccccc23)CC2CN(C(=O)c3ccc(OC(C)C)c(OC)c3)CC21` (stereo partly shown) [I-177], the IC50 on CDK2/Cyclin E1(14-475) and in the assay with Kuramochi cells was > 10 µM in each case.

Regarding `CNC(=O)[C@H](CCCc1ccccc1)NC(=O)C1CN(C(=O)Cc2cccc3[nH]ccc23)CC2CN(C(=O)c3ccc(OC(C)C)c(OC)c3)CC21` (stereo partly shown) [I-178], the IC50 at CDK2/Cyclin E1(14-475) and with Kuramochi cells was > 10 µM each time.

Turning to `CNC(=O)[C@H](CCCc1ccccc1)NC(=O)C1CN(C(=O)Cc2c[nH]c3ncccc23)CC2CN(C(=O)c3ccc(OC(C)C)c(OC)c3)CC21` (stereo partly shown) [I-179], the IC50 on CDK2/Cyclin E1(14-475) and in the assay with Kuramochi cells was > 10 µM each time.

Regarding `CNC(=O)[C@H](CCCc1ccccc1)NC(=O)C1CN(C(=O)c2cccc3[nH]ccc23)CC2CN(C(=O)c3ccc(OC(C)C)c(OC)c3)CC21` (stereo partly shown) [I-180], the IC50 at CDK2/Cyclin E1(14-475) and in the assay with Kuramochi cells was > 10 µM throughout.

`CNC(=O)[C@H](CCCc1ccccc1)NC(=O)C1CN(C(=O)c2cnc3ccccc3c2)CC2CN(C(=O)c3ccc(OC(C)C)c(OC)c3)CC21` (stereo partly shown) [I-181]: the IC50 at CDK2/Cyclin E1(14-475) and with Kuramochi cells was > 10 µM throughout.

As to `CNC(=O)[C@H](CCCc1ccccc1)NC(=O)C1CN(C(=O)c2n[nH]c3ccccc23)CC2CN(C(=O)c3ccc(OC(C)C)c(OC)c3)CC21` (stereo partly shown) [I-182], the IC50 on CDK2/Cyclin E1(14-475) and with Kuramochi cells was > 10 µM each time.

For `CNC(=O)[C@H](CCCc1ccccc1)NC(=O)C1CN(C(=O)c2cc(C)[nH]n2)CC2CN(C(=O)c3ccc(OC(C)C)c(OC)c3)CC21` (stereo partly shown) [I-183], the IC50 on CDK2/Cyclin E1(14-475) and with Kuramochi cells was > 10 µM in each case.

Regarding `CNC(=O)[C@H](CCCc1ccccc1)NC(=O)C1CN(C(=O)c2ccc(C)cn2)CC2CN(C(=O)c3ccc(OC(C)C)c(OC)c3)CC21` (stereo partly shown) [I-184], the IC50 on CDK2/Cyclin E1(14-475) and with Kuramochi cells was > 10 µM each time.

Take `CNC(=O)[C@H](CCCc1ccccc1)NC(=O)C1CN(C(=O)c2sc(C)nc2C)CC2CN(C(=O)c3ccc(OC(C)C)c(OC)c3)CC21` (stereo partly shown) [I-185]: the IC50 at CDK2/Cyclin E1(14-475) and with Kuramochi cells was > 10 µM throughout.

`CNC(=O)[C@H](CCCc1ccccc1)NC(=O)C1CN(C(=O)Cc2nnn[nH]2)CC2CN(C(=O)c3ccc(OC(C)C)c(OC)c3)CC21` (stereo partly shown) [I-186]: the IC50 on CDK2/Cyclin E1(14-475) and with Kuramochi cells was > 10 µM each time.

For `CNC(=O)[C@H](CCCc1ccccc1)NC(=O)C1CN(C(=O)c2ocnc2C)CC2CN(C(=O)c3ccc(OC(C)C)c(OC)c3)CC21` (stereo partly shown) [I-187], the IC50 on CDK2/Cyclin E1(14-475) and in the assay with Kuramochi cells was > 10 µM in each case.

As for `CNC(=O)[C@H](CCCc1ccccc1)NC(=O)C1CN(C(=O)c2oc(C)nc2C)CC2CN(C(=O)c3ccc(OC(C)C)c(OC)c3)CC21` (stereo partly shown) [I-188], the IC50 at CDK2/Cyclin E1(14-475) and in the assay on Kuramochi cells was > 10 µM throughout.

Take `CNC(=O)[C@H](CCCc1ccccc1)NC(=O)C1CN(C(=O)c2ccc(C)[nH]2)CC2CN(C(=O)c3ccc(OC(C)C)c(OC)c3)CC21` (stereo partly shown) [I-189]: the IC50 at CDK2/Cyclin E1(14-475) and with Kuramochi cells was > 10 µM in each case.

For the compound `CNC(=O)[C@H](CCCc1ccccc1)NC(=O)C1CN(C(=O)c2c[nH]c3ccc(F)cc23)CC2CN(C(=O)c3ccc(OC(C)C)c(OC)c3)CC21` (stereo partly shown) [I-190], the IC50 at CDK2/Cyclin E1(14-475) and in the assay on Kuramochi cells was > 10 µM in each case.

As to `CNC(=O)[C@H](CCCc1ccccc1)NC(=O)C1CN(C(=O)c2c[nH]c3c(C)cccc23)CC2CN(C(=O)c3ccc(OC(C)C)c(OC)c3)CC21` (stereo partly shown) [I-191], the IC50 on CDK2/Cyclin E1(14-475) and in the assay on Kuramochi cells was > 10 µM each time.

Regarding `CNC(=O)[C@H](CCCc1ccccc1)NC(=O)C1CN(C(=O)CCCc2ccccn2)CC2CN(C(=O)c3ccc(OC(C)C)c(OC)c3)CC21` (stereo partly shown) [I-192], the IC50 at CDK2/Cyclin E1(14-475) and in the assay on Kuramochi cells was > 10 µM throughout.

`CNC(=O)[C@H](CCCc1ccccc1)NC(=O)C1CN(C(=O)c2ncoc2C)CC2CN(C(=O)c3ccc(OC(C)C)c(OC)c3)CC21` (stereo partly shown) [I-193]: the IC50 on CDK2/Cyclin E1(14-475) and in the assay with Kuramochi cells was > 10 µM throughout.
